Here are results for one compound from PMC4595849, “Rational Design of Benzylidenehydrazinyl-Substituted Thiazole Derivatives as Potent Inhibitors of Human Dihydroorotate Dehydrogenase with in Vivo Anti-arthritic Activity” (Scientific Reports, 2015).

Where “and” joins values, the source holds several entries; their conditions need not be identical. Equal values may be shown once.

The nature of data set [1]: in vivo. The note with it: male, Sprague-Dawley, rat, po, 10 mg/kg.
Protocol: (§1) Male Sprague-Dawley rats were raised according to the Guide for the Care and Use of Laboratory Animals. […] Heparin sodium was applied as the anticoagulant of the blood samples. Based on the LC/MS/MS quantitative data, pharmacokinetic parameters were analyzed using WinNonlin5.2 with noncompartment model.
A short description of data set [2]: single dose pharmacokinetic study in rats (IV and PO). The note with it: male, Sprague-Dawley, rat, plasma, 1 mg/kg.
Protocol: as §1
Data set [3] concerns Wistar rats with collagen-induced arthritis (CIA). In words: collagen-induced arthritis (CIA) rat efficacy study. It is filed as in vivo. The conditions noted are these: for arthritis score: day 28, maximum score 8. The protocol: Compound 19 and methotrexate were injected intraperitoneally once per day for 28 days into the Wistar rats with collagen-induced arthritis (CIA). The swelling scores of the arthritis and morphological observations of the rats’ joint tissues were employed to examine the anti-arthritic effect of compound 19 (Fig. 5). With the onset of arthritis, the swelling scores were an indication of the disease states. The maximum score was 8, which is the sum of the scores from both hind paws of each rat and indicates a severe arthritis state. During the experiment, the control rats had normal eating patterns, shiny hair and continuously increasing body weight.
Adult male Wistar rats (120–140 g) were purchased from Shanghai SLRC Laboratory animal company and housed in standard pathogen-free cages. The environment was climate-controlled (20–25 °C, 50–60% relative humidity) with a 12-hour light and 12-hour dark cycle as described previously. Sterilized food and water were provided naturally. All procedures involving animals conform to the Chinese government guidelines for animal experiments, and were conducted with approval of the Institutional Animal Care and Use Committee of East China University of Science & Technology. Bovine type II collagen (CII, Chondrex, USA) was emulsified in the same manner as that conducted previously to get the CIA model. Specifically, 49 rats were randomly assigned into five groups: normal control (solvent, i.p., n = 6), CIA model (solvent, i.p., n = 11), Methotrexate-treated (0.3 mg/kg, i.p., n = 10), compound 19-treated (5 mg/kg, i.p., n = 11) and compound 19-treated (30 mg/kg, i.p., n = 11) groups. Methotrexate, reported to has a therapeutic effect on rheumatoid arthritis, was used as the positive control in this study. The main workflows of this experiment were consistent with that reported recently. During the 28 days of the experiment, compound 19 (5 mg/kg and 30 mg/kg) and Methotrexate (0.3 mg/kg) were injected intraperitoneally once every day. At the same time, the normal control group and model group were administered the same amount of solution. The solvent of 19 was made up of 5% DMSO, 45% saline and 50% PEG400.
In this study, the clinical-mimic arthritis was observed and the severity was assessed by the same criteria as that applied in reference 65: 0, normal, without any swelling; 1, mild swelling; 2, swelling; 3, significant swelling; 4, severe swelling. The maximum score was 8, which was the sum of the scores from both hind paws of each rat. When arthritic signs appeared, the incidence and severity of the arthritis in rats with different treatments were evaluated via arthritis scores recorded every 2 days under blinded conditions. Measurement of body weight was taken every 3 days. All Wistar rats were killed after 28 day’s trails. Pathological detections against the whole knee joints of the rats were conducted using the same method as described previously. Mean ± standard deviation […] was applied to present the data in this study. SPSS was used to evaluate the statistical significance of differences among the groups. P ≤ 0.05 was the threshold to be statistically significant.

For data set [4], the target named is T1, hDHODH (Met30-Arg396) (Homo sapiens, UniProt Q02127).
T1 construct: hDHODH (Met30-Arg396) was expressed and purified in the same manner as described in our recently published work; made in house
As to the kind of experiment: hDHODH enzyme inhibition, DCIP assay. The format is biochemical. An excerpt: The plasmid coding for human DHODH was kindly provided by Prof. Jon Clardy (Harvard Medical School)[7]. hDHODH (Met30-Arg396) was expressed and purified in the same manner as described in our recently published work[38]. We determined the effect of benzylidenehydrazinyl-substituted thiazole derivatives to inhibit hDHODH by using a DCIP assay method.

Usually Cmax stands for the peak of the concentration-time curve. The half-life is the time needed for the level to fall by half in the phase considered. A word on the IC50: it is the point on the concentration scale where inhibition reaches its midpoint. Read a high IC50 as weaker potency in that assay.

T1 sequence (Q02127 29-395): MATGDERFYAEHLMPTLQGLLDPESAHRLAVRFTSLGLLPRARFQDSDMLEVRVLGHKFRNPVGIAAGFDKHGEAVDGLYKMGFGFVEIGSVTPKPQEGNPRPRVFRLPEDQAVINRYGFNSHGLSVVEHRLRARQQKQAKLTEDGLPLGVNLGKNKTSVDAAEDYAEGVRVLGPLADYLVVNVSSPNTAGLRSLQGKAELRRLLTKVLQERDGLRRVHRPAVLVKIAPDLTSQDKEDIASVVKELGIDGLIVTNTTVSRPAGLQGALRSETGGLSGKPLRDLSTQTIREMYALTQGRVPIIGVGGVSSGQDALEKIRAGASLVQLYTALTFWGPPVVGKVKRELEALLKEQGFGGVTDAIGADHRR

On to `O=C(O)c1ccccc1/C=N/Nc1nc(-c2ccccc2Cl)cs1` [Compound 19, (E)-2-((2-(4-(2-chlorophenyl)thiazol-2-yl)hydrazono)methyl)benzoic acid], for which, in data set [1], the peak level (Cmax) was 5310 ± 1910 ng/mL. The compound further had a half-life in data set [2] of 9.69 ± 3.15 h. The figures for the arthritis score entry in data set [3] (5 mg/kg i.p. daily) and in data set [3] (30 mg/kg i.p. daily) were “around 5” and roughly 3, respectively. Also, the “anti-arthritic effect (in words)” value in data set [3] (5 and 30 mg/kg i.p. daily for 28 days) was “significant dose-dependent anti-arthritic effect”. In addition, the “histological changes in joint tissues (H&E)” value in data set [3] (both dosages, compared to CIA rats) was “evidently alleviated”. Moreover, in data set [3] (i.p. daily for 28 days, versus model group), the “influence on body weight” value is reported as “no obvious influence on increase in body weight”. For the same compound, the “inhibition of hDHODH (in words)” value in data set [4] is listed as “IC50 values in the double-digit nanomolar range”. Moreover, the LLE in data set [4] (LLE = pIC50 − clogP) is 3.59. The “fold increase in potency compared to 18” value in data set [4] (hDHODH IC50 relative to hydroxy-substituted derivative 18) was determined as 43 fold. For the same compound, the IC50 in data set [4] (hDHODH, mean ± SD of three independent experiments, IC50 measured if inhibition rate at 10 μM was larger than 50%) is 32 nM and 32.2 nM.
